Results taken from the supplement of paper PMC10307832.

Key:
Test in all cases: relative viability (nuclei count vs DMSO), 5 days (fraction); higher = more cells survive
NCI-H2228 = system: NCI-H2228
Summary of the method: (§1)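 Values are medians from duplicate plates. Each reflects relative viability, defined as the nuclei count of treated wells over that of vehicle wells. Lung cancer cell lines in 1536-well plates were pin-tool dosed one day after seeding with one drug alone or with a fixed anchor-drug dose plus five library-drug doses (not always all listed) in √10 steps, then fixed, stained and imaged at 4× after 5 days.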

COR-L23 = system: COR-L23
Summary of the method: as §1

NCI-H23 = system: NCI-H23
Summary of the method: as §1

EMC-BAC-2 = system: EMC-BAC-2
Summary of the method: as §1

HCC-78 = system: HCC-78
Summary of the method: as §1

ABC-1 = system: ABC-1
Summary of the method: as §1

LC-2-ad = system: LC-2-ad
Summary of the method: as §1

NCI-H358 = system: NCI-H358
Summary of the method: as §1

NCI-H1793 = system: NCI-H1793
Summary of the method: as §1

NCI-H2405 = system: NCI-H2405
Summary of the method: as §1

NCI-H1395 = system: NCI-H1395
Summary of the method: as §1

NCI-H2023 = system: NCI-H2023
Summary of the method: as §1

ChaGo-K-1 = system: ChaGo-K-1
Summary of the method: as §1

NCI-H1944 = system: NCI-H1944
Summary of the method: as §1

HCC-15 = system: HCC-15
Summary of the method: as §1

SK-LU-1 = system: SK-LU-1
Summary of the method: as §1

NCI-H838 = system: NCI-H838
Summary of the method: as §1

HOP-62 = system: HOP-62
Summary of the method: as §1

HCC-366 = system: HCC-366
Summary of the method: as §1

NCI-H2126 = system: NCI-H2126
Summary of the method: as §1

HARA = system: HARA
Summary of the method: as §1

NCI-H1993 = system: NCI-H1993
Summary of the method: as §1

COc1cc2nccc(Oc3ccc(NC(=O)Nc4cc(C)on4)c(Cl)c3)c2cc1OC [Tivozanib] + CC(=O)c1c(C)c2cnc(Nc3ccc(N4CCNCC4)cn3)nc2n(C2CCCC2)c1=O [Palbociclib] (partner 0.5 µM)
relative viability (NCI-H2228; first compound 0.005 µM): 0.688
relative viability (NCI-H2228; first compound 0.01581 µM): 0.68
relative viability (NCI-H2228; first compound 0.05 µM): 0.883
relative viability (NCI-H2228; first compound 0.1581 µM): 0.321
relative viability (NCI-H2228; first compound 0.5 µM): 0.643
relative viability (COR-L23; first compound 0.005 µM): 0.246
relative viability (COR-L23; first compound 0.01581 µM): 0.294
relative viability (COR-L23; first compound 0.05 µM): 0.319
relative viability (COR-L23; first compound 0.1581 µM): 0.282
relative viability (COR-L23; first compound 0.5 µM): 0.213
relative viability (NCI-H23; first compound 0.005 µM): 0.459
relative viability (NCI-H23; first compound 0.01581 µM): 0.569
relative viability (NCI-H23; first compound 0.05 µM): 0.488
relative viability (NCI-H23; first compound 0.5 µM): 0.497
relative viability (EMC-BAC-2; first compound 0.005 µM): 0.524
relative viability (EMC-BAC-2; first compound 0.01581 µM): 0.543
relative viability (EMC-BAC-2; first compound 0.05 µM): 0.529
relative viability (EMC-BAC-2; first compound 0.1581 µM): 0.521
relative viability (EMC-BAC-2; first compound 0.5 µM): 0.494
relative viability (HCC-78; first compound 0.005 µM): 0.514
relative viability (HCC-78; first compound 0.01581 µM): 0.438
relative viability (HCC-78; first compound 0.05 µM): 0.474
relative viability (HCC-78; first compound 0.1581 µM): 0.416
relative viability (HCC-78; first compound 0.5 µM): 0.463
relative viability (ABC-1; first compound 0.005 µM): 0.638
relative viability (ABC-1; first compound 0.01581 µM): 0.732
relative viability (ABC-1; first compound 0.05 µM): 0.562
relative viability (ABC-1; first compound 0.1581 µM): 0.511
relative viability (ABC-1; first compound 0.5 µM): 0.437
relative viability (LC-2-ad; first compound 0.005 µM): 0.471
relative viability (LC-2-ad; first compound 0.01581 µM): 0.47
relative viability (LC-2-ad; first compound 0.05 µM): 0.478
relative viability (LC-2-ad; first compound 0.1581 µM): 0.369
relative viability (LC-2-ad; first compound 0.5 µM): 0.297
relative viability (NCI-H358; first compound 0.005 µM): 0.123
relative viability (NCI-H358; first compound 0.01581 µM): 0.165
relative viability (NCI-H358; first compound 0.05 µM): 0.122
relative viability (NCI-H358; first compound 0.1581 µM): 0.133
relative viability (NCI-H358; first compound 0.5 µM): 0.157
relative viability (NCI-H1793; first compound 0.005 µM): 0.309
relative viability (NCI-H1793; first compound 0.01581 µM): 0.343
relative viability (NCI-H1793; first compound 0.05 µM): 0.354
relative viability (NCI-H1793; first compound 0.5 µM): 0.422
relative viability (NCI-H2405; first compound 0.005 µM): 0.534
relative viability (NCI-H2405; first compound 0.01581 µM): 0.55
relative viability (NCI-H2405; first compound 0.05 µM): 0.528
relative viability (NCI-H2405; first compound 0.1581 µM): 0.527
relative viability (NCI-H2405; first compound 0.5 µM): 0.466
relative viability (NCI-H1395; first compound 0.005 µM): 0.581
relative viability (NCI-H1395; first compound 0.01581 µM): 0.587
relative viability (NCI-H1395; first compound 0.05 µM): 0.659
relative viability (NCI-H1395; first compound 0.1581 µM): 0.55
relative viability (NCI-H1395; first compound 0.5 µM): 0.509
relative viability (NCI-H2023; first compound 0.005 µM): 0.371
relative viability (NCI-H2023; first compound 0.01581 µM): 0.447
relative viability (NCI-H2023; first compound 0.05 µM): 0.384
relative viability (NCI-H2023; first compound 0.1581 µM): 0.395
relative viability (NCI-H2023; first compound 0.5 µM): 0.451
relative viability (ChaGo-K-1; first compound 0.005 µM): 0.879
relative viability (ChaGo-K-1; first compound 0.01581 µM): 0.916
relative viability (ChaGo-K-1; first compound 0.05 µM): 0.898
relative viability (ChaGo-K-1; first compound 0.1581 µM): 0.947
relative viability (ChaGo-K-1; first compound 0.5 µM): 0.886
relative viability (NCI-H1944; first compound 0.005 µM): 0.303
relative viability (NCI-H1944; first compound 0.01581 µM): 0.365
relative viability (NCI-H1944; first compound 0.05 µM): 0.344
relative viability (NCI-H1944; first compound 0.1581 µM): 0.296
relative viability (NCI-H1944; first compound 0.5 µM): 0.324
relative viability (HCC-15; first compound 0.005 µM): 0.689
relative viability (HCC-15; first compound 0.01581 µM): 0.768
relative viability (HCC-15; first compound 0.05 µM): 0.767
relative viability (HCC-15; first compound 0.1581 µM): 0.734
relative viability (HCC-15; first compound 0.5 µM): 0.672
relative viability (SK-LU-1; first compound 0.005 µM): 0.372
relative viability (SK-LU-1; first compound 0.01581 µM): 0.396
relative viability (SK-LU-1; first compound 0.05 µM): 0.386
relative viability (SK-LU-1; first compound 0.1581 µM): 0.367
relative viability (SK-LU-1; first compound 0.5 µM): 0.37
relative viability (NCI-H838; first compound 0.005 µM): 0.227
relative viability (NCI-H838; first compound 0.01581 µM): 0.227
relative viability (NCI-H838; first compound 0.05 µM): 0.211
relative viability (NCI-H838; first compound 0.1581 µM): 0.2
relative viability (NCI-H838; first compound 0.5 µM): 0.229
relative viability (HOP-62; first compound 0.005 µM): 0.499
relative viability (HOP-62; first compound 0.01581 µM): 0.419
relative viability (HOP-62; first compound 0.05 µM): 0.495
relative viability (HOP-62; first compound 0.1581 µM): 0.438
relative viability (HOP-62; first compound 0.5 µM): 0.397
relative viability (HCC-366; first compound 0.005 µM): 0.394
relative viability (HCC-366; first compound 0.01581 µM): 0.422
relative viability (HCC-366; first compound 0.05 µM): 0.362
relative viability (HCC-366; first compound 0.1581 µM): 0.343
relative viability (HCC-366; first compound 0.5 µM): 0.322
relative viability (NCI-H2126; first compound 0.005 µM): 0.384
relative viability (NCI-H2126; first compound 0.01581 µM): 0.345
relative viability (NCI-H2126; first compound 0.05 µM): 0.352
relative viability (NCI-H2126; first compound 0.1581 µM): 0.337
relative viability (NCI-H2126; first compound 0.5 µM): 0.371
relative viability (HARA; first compound 0.005 µM): 0.297
relative viability (HARA; first compound 0.01581 µM): 0.208
relative viability (HARA; first compound 0.05 µM): 0.3
relative viability (HARA; first compound 0.1581 µM): 0.245
relative viability (HARA; first compound 0.5 µM): 0.272
relative viability (NCI-H1993; first compound 0.005 µM): 0.551
relative viability (NCI-H1993; first compound 0.01581 µM): 0.641
relative viability (NCI-H1993; first compound 0.05 µM): 0.638
relative viability (NCI-H1993; first compound 0.1581 µM): 0.537
relative viability (NCI-H1993; first compound 0.5 µM): 0.617
